Holding throughout (type): cell-based
In test [1] the test system is L6-Myoblasten. Kind of test: Formation of myotubes (muscle fibres) from myoblasts. As to conditions: 9 Stunden Inkubation, Fig. 3B. The text has this: (§1) Die Ausführungsbeispiele zeigen, dass die Tetrapeptide Seq ID 1-6 wenigstens die gleiche Wirksamkeit aufweisen wie Testosteron und die Testosteronanaloga. Dabei weisen sie als Tetrapeptide jedoch nicht die hormonbedingten Nebenwirkungen auf, da sie nur am membrangebundenen Androgenrezeptor ZIP-9 binden und nicht im Zellkern am klassischen Androgenrezeptor (AR). Eine besonders positive Wirkung kommt dem erfindungsgemäßen Tetrapeptid 1 Seq ID 1 zu. Die Wirksamkeit der erfindungsgemäßen Tetrapeptide Seq ID 1-6 zur Behandlung der Osteoporose, myodegenerativen Erkrankungen (zum Beispiel Muskeldystrophie, insbesondere jedoch Muskelatrophie) sowie der männlichen Infertilität wird experimentell in Zellkultur in einem charakteristischen Zellmodell gezeigt. Zur Verabreichung an Menschen und Tiere wird mindestens ein erfindungsgemäße Tetrapeptid als medizinisches Mittel in einer pharmazeutisch akzeptablen Komposition als Arzneimittel formuliert. Das medizinische Mittel wird zur Behandlung der Osteoporose, myodegenerativen Erkrankungen sowie der männlichen Infertilität bei Menschen und Tieren eingesetzt. Es löst dabei keine übermäßige Toxizität, Irritationen oder allergische Reaktionen aus. […]

For test [2], the system named is Claudin-1. Kind of test: Stimulation of Claudin-1 formation, fluorescence measurement. The settings on record: 93RS2 Sertoli-Zellen; relative to control sample without tetrapeptide. The text has this:
(§2) Die besondere Wirksamkeit von Tetrapeptid Seq ID 1 umfasst weiterhin die Stimulierung der Bildung von Claudin-1 und Claudin-5 in Zellen. Claudine sind kleine Transmembranproteine, die in vielen Organismen, Menschen und Tieren vorkommen und in ihrem Aufbau sehr ähnlich sind. Sie haben entscheidende Funktionen zur Bildung einer funktionierenden Barriere in verschiedenen Epithelien. Es gibt zahlreiche […] von Claudinen, die weitgehend ubiquitär exprimiert sind und Grundfunktionen für die Bildung der Tight-Junction-Bänder übernehmen. Caudin-1 und Claudin-5 sind spezialisierte Claudine, die an der Blut-Hoden-Schranke der männlichen Gonaden exprimiert werden. Ihre Beteiligung an der Ausbildung und Aufrechterhaltung der Tight Junctions an der Blut-Hoden-Schranke schützt die männlichen Keimzellen vor Angriffen des eigenen Immunsystems. Somit gehen Defekte der Blut-Hoden-Schranke immer mit Infertilität einher. […] Experimentell erfolgt die Quantifizierung der Stimulation der Bildung von Claudin-1 und/oder Claudin-5 in der Zelle durch Fluoreszenzmessung. Der quantitative Messwert zur Beschreibung der Stimulation der Bildung von Claudin-1 und/oder Claudin-5 in 93RS2 Sertoli-Zellen ist die Fluoreszenzintensität der mit dem Tetrapeptid behandelten Zellen bei mikroskopischer Betrachtung im direkten Vergleich mit einer gleichbehandelten Kontrollprobe ohne Tetrapeptid.

Test [3] relates to Myogenin. Kind of test: Stimulation of myogenin formation, fluorescence measurement. The settings on record: L6-Myoblasten; relative to control sample without tetrapeptide.
Source text: as §1

The test system of test [4] is SAOS-2-Zellen. Put plainly: Stimulation of ossification, Alizarin red staining. From the text: Die Ausführungsbeispiele zeigen, dass die Tetrapeptide Seq ID 1-6 wenigstens die gleiche Wirksamkeit aufweisen wie Testosteron und die Testosteronanaloga. Dabei weisen sie als Tetrapeptide jedoch nicht die hormonbedingten Nebenwirkungen auf, da sie nur am membrangebundenen Androgenrezeptor ZIP-9 binden und nicht im Zellkern am klassischen Androgenrezeptor (AR). Eine besonders positive Wirkung kommt dem erfindungsgemäßen Tetrapeptid 1 Seq ID 1 zu. Die Wirksamkeit der erfindungsgemäßen Tetrapeptide Seq ID 1-6 zur Behandlung der Osteoporose, myodegenerativen Erkrankungen (zum Beispiel Muskeldystrophie, insbesondere jedoch Muskelatrophie) sowie der männlichen Infertilität wird experimentell in Zellkultur in einem charakteristischen Zellmodell gezeigt. Zur Verabreichung an Menschen und Tiere wird mindestens ein erfindungsgemäße Tetrapeptid als medizinisches Mittel in einer pharmazeutisch akzeptablen Komposition als Arzneimittel formuliert. Das medizinische Mittel wird zur Behandlung der Osteoporose, myodegenerativen Erkrankungen sowie der männlichen Infertilität bei Menschen und Tieren eingesetzt. Es löst dabei keine übermäßige Toxizität, Irritationen oder allergische Reaktionen aus. Bevorzugt wird das medizinische Mittel umfassend mindestens ein erfindungsgemäßes Tetrapeptid Menschen oder Tieren in Form entweder oral, intramuskulär, intraossär, rektal, parenteral, intravenös, subkutan, intracisternal, intravaginal, intraperitoneal, intrathekal, intravasculär, lokal (Puder, Salbe oder Tropfen), in Sprayform oder als Pflaster verabreicht. Dosierungsformen für die örtliche Administration des medizinischen Mittels dieser Erfindung schließen Salben, Puder, Sprays oder Inhalationsmittel ein. Das mindestens eine erfindungsgemäße Tetrapeptid als medizinisches Mittel wird unter sterilen Bedingungen mit einem physiologisch akzeptablen Trägerstoff und möglichen Konservierungsmitteln, Puffern oder Treibmitteln, je nach Bedarf, vermischt. Ein Konservierungsmittel ist eine Chemikalie, die zugesetzt wird, um die Zersetzung zu verhindern. Es hilft, das medizinische Mittel gegen Bakterien- und Pilzbefall oder Abbau durch Enzyme zu schützen, indem es das Wachstum von Bakterien oder Pilzen verhindern und/oder die Zersetzung des Mittels verlangsamt. Bevorzugt wird das medizinische Mittel dieser Erfindung als Lyophilisat hergestellt. Bevorzugt wird das medizinische Mittel dieser Erfindung oral verabreicht. Da das darin enthaltene mindestens eine Tetrapeptid sehr klein ist, wird es von proteolytischen Enzymen nicht so rasch abgebaut und kann seine Wirksamkeit am ZIP-9 Rezeptor sehr selektiv und sehr spezifisch entfalten. Die Tetrapeptide Seq ID 1-6 werden gemäß Verfahren, die der Fachmann kennt, einfach und mit geringen Kosten hergestellt. Sie weisen in lyophilisierter Form eine lange Lagerungsbeständigkeit und hohe Aktivität auf. Die Lagerung ist bei Raumtemperatur möglich. Ein Vorteil ist, dass aufgrund der hohen Spezifität nur geringe Mengen verabreicht werden müssen, um an den ZIP-9 Rezeptor zu binden und dort die positiven Effekte auszulösen. In einem besonderen Ausführungsbeispiel wird das Tetrapeptid Seq ID 1 verkapselt, damit es im Magen-Darm-Trakt nicht abgebaut (säure-hydrolysiert), sondern als Tetrapeptid in den Blutkreislauf aufgenommen wird. Dazu werden z.B. mesoporöse Silicapartikel verwendet, die die Bioverfügbarkeit verlängern. Alternativ werden an das Tetrapeptid Polymere angehängt, wie z.B. Polyethlenglycolgruppen (PEGylierung). […]

In test [5] the test system is Zonula Occludens-1 (ZO-1). Kind of test: Stimulation of ZO-1 expression, fluorescence measurement. As to conditions: Sertoli-Zellen; Fig. 4B-4D. The text has this:
Experimentell erfolgt die Quantifizierung der Stimulation der Bildung von ZO-1 in 93RS2 Sertoli-Zellen durch quantitative Auswertung der Messung der Expression von ZO-1. Der quantitative Messwert zur Beschreibung der Stimulation der Expression von ZO-1 ist die Häufigkeit (Frequenz), mit der mindestens ein bestimmter Wert ("Wert") der Fluoreszenzintensität gemessen wird. Die Bedeutung der Begriffe "Häufigkeit"/"Frequenz" und "Wert"/"Wert der Fluoreszenzintensität" ist dabei analog der Bedeutung im Zusammenhang mit der Alkalischen Phosphatase und bezieht sich hierbei auf Fig. 4F bzw. Fig. 4G bzw. Fig. 4H bzw. Fig. 4I. Die Häufigkeit des mindestens einen bestimmten Wertes der in den mit dem erfindungsgemäßen Tetrapeptid behandelten Zellen gemessenen Werte im direkten Vergleich mit der Häufigkeit des mindestens einen gleichen Wertes, die in Tetrapeptid-freien aber ansonsten gleich behandelten Kontrollzellen gemessen wird, beträgt ab dem Wert 70 mindestens 120 % der in den gleich behandelten Kontrollzellen gemessenen Häufigkeit ab dem Wert 70.
Die Durchführung des Färbevorganges erfolgt bei allen Proben (Referenz, Vergleichsprobe mit Testosteron und Tetrapeptid) in gleicher Weise, so dass die Farbstärke (erkennbar in der photographischen Darstellung in Fig. 1A und Fig. 1B anhand der Grauwerte in der jeweiligen Abbildung) als Maß für die Stimulierung dient (je dunkler der Grauwert, umso stärker die Stimulation zur Ossifikation). […] Dem Fachmann sind diese Zusammenhänge bekannt, ebenso weiß er wie Untersuchungen der Expression von Enzymen, und somit auch der ALP, quantitativ durchgeführt werden, so dass darauf hier nur allgemein eingegangen werden muss. […] Im Rahmen der vorliegenden Ausführungsbeispiele (Beispielmessungen) wurden alle dem Fachmann bekannten Parameter, beispielsweise Lösungsmittel- und Pufferzusammensetzungen sowie -Konzentrationen, Temperaturen, Geräteeinstellungen (z. B. für die Messung der Fluoreszenzstärke) usw. in geeigneten Grenzen konstant gehalten, so dass die Versuchsergebnisse die beschriebenen quantitativ-vergleichbaren relativen Ergebnisse liefern. […]

The test system of test [6] is Claudin-5. Put plainly: Stimulation of Claudin-5 formation, fluorescence measurement. The settings on record: 93RS2 Sertoli-Zellen; relative to control sample without tetrapeptide.
Source text: as §2

The subject of test [7] is Fokalen Adhäsionskinase (FAK). Kind of test: Stimulation/activation of focal adhesion kinase, fluorescence measurement. As to conditions: L6-Myoblasten.
Source text: as §1

Test [8] concerns Alkalischen Phosphatase (ALP). Kind of test: Expression of alkaline phosphatase, immunofluorescence. The settings on record: SAOS-2 Osteoblasten; for Expression der Alkalischen Phosphatase (grüne Fluoreszenz): Fig. 2A, 2B. From the text: Die Ausführungsbeispiele zeigen, dass die Tetrapeptide Seq ID 1-6 wenigstens die gleiche Wirksamkeit aufweisen wie Testosteron und die Testosteronanaloga. Dabei weisen sie als Tetrapeptide jedoch nicht die hormonbedingten Nebenwirkungen auf, da sie nur am membrangebundenen Androgenrezeptor ZIP-9 binden und nicht im Zellkern am klassischen Androgenrezeptor (AR). Eine besonders positive Wirkung kommt dem erfindungsgemäßen Tetrapeptid 1 Seq ID 1 zu. Die Wirksamkeit der erfindungsgemäßen Tetrapeptide Seq ID 1-6 zur Behandlung der Osteoporose, myodegenerativen Erkrankungen (zum Beispiel Muskeldystrophie, insbesondere jedoch Muskelatrophie) sowie der männlichen Infertilität wird experimentell in Zellkultur in einem charakteristischen Zellmodell gezeigt. Zur Verabreichung an Menschen und Tiere wird mindestens ein erfindungsgemäße Tetrapeptid als medizinisches Mittel in einer pharmazeutisch akzeptablen Komposition als Arzneimittel formuliert. Das medizinische Mittel wird zur Behandlung der Osteoporose, myodegenerativen Erkrankungen sowie der männlichen Infertilität bei Menschen und Tieren eingesetzt. Es löst dabei keine übermäßige Toxizität, Irritationen oder allergische Reaktionen aus. Bevorzugt wird das medizinische Mittel umfassend mindestens ein erfindungsgemäßes Tetrapeptid Menschen oder Tieren in Form entweder oral, intramuskulär, intraossär, rektal, parenteral, intravenös, subkutan, intracisternal, intravaginal, intraperitoneal, intrathekal, intravasculär, lokal (Puder, Salbe oder Tropfen), in Sprayform oder als Pflaster verabreicht. Dosierungsformen für die örtliche Administration des medizinischen Mittels dieser Erfindung schließen Salben, Puder, Sprays oder Inhalationsmittel ein. Das mindestens eine erfindungsgemäße Tetrapeptid als medizinisches Mittel wird unter sterilen Bedingungen mit einem physiologisch akzeptablen Trägerstoff und möglichen Konservierungsmitteln, Puffern oder Treibmitteln, je nach Bedarf, vermischt. Ein Konservierungsmittel ist eine Chemikalie, die zugesetzt wird, um die Zersetzung zu verhindern. […]

The test system of test [9] is Fokalen Adhäsionskinase (FAK). Kind of test: Stimulation/activation of focal adhesion kinase, fluorescence measurement. As to conditions: L6-Myoblasten; 6 Stunden Inkubation; versus reference sample; Fig. 3A. From the text: (§3) Zur Verabreichung an Menschen und Tiere wird mindestens ein erfindungsgemäße Tetrapeptid als medizinisches Mittel in einer pharmazeutisch akzeptablen Komposition als Arzneimittel formuliert. […] Bevorzugt wird das medizinische Mittel umfassend mindestens ein erfindungsgemäßes Tetrapeptid Menschen oder Tieren in Form entweder oral, intramuskulär, intraossär, rektal, parenteral, intravenös, subkutan, intracisternal, intravaginal, intraperitoneal, intrathekal, intravasculär, lokal (Puder, Salbe oder Tropfen), in Sprayform oder als Pflaster verabreicht. Dosierungsformen für die örtliche Administration des medizinischen Mittels dieser Erfindung schließen Salben, Puder, Sprays oder Inhalationsmittel ein. Das mindestens eine erfindungsgemäße Tetrapeptid als medizinisches Mittel wird unter sterilen Bedingungen mit einem physiologisch akzeptablen Trägerstoff und möglichen Konservierungsmitteln, Puffern oder Treibmitteln, je nach Bedarf, vermischt. Ein Konservierungsmittel ist eine Chemikalie, die zugesetzt wird, um die Zersetzung zu verhindern. […] Bevorzugt wird das medizinische Mittel dieser Erfindung als Lyophilisat hergestellt. Bevorzugt wird das medizinische Mittel dieser Erfindung oral verabreicht.

The test system of test [10] is L6-Myoblasten. Kind of test: Formation of myotubes (muscle fibres) from myoblasts. The settings on record: 9 Stunden Inkubation, Fig. 3B.
Source text: as §3
This is another data set of the same source.

Test [11] concerns Alkalischen Phosphatase (ALP). Kind of test: Expression of alkaline phosphatase, immunofluorescence. As to conditions: SAOS-2 Osteoblasten; Fig. 2A, 2B.
Source text: as §3

The test system of test [12] is SAOS-2-Zellen. Put plainly: Stimulation of ossification, Alizarin red staining.
Source text: as §3
The source holds these as a separate data set.

Peptide text beside a SMILES is read from it. Where only a bound is given, the exact number is not on record here.

As for `CC[C@H](C)[C@H](N)C(=O)N[C@@H](C)C(=O)N1CCC[C@H]1C(=O)NCC(=O)O` [Peptid-1, IAPG] (H-IAPG-OH), the “Bildung von Myotuben (Muskelfasern)” value in [1] is “Myotuben (= Muskelfasern) gebildet”; in [1] (listed as Tetrapeptid Seq ID 1), “die Muselfaserbildung stimuliert”. The “Fluoreszenzintensität (Claudin-1)” value in [2] was “wenigstens den dreifachen Wert”. In addition, the “Fluoreszenzintensität (Myogenin)” value in test [3] is “wenigstens den dreifachen Wert”. For the same compound, the “Stimulierung der Ossifikation” value in [4] (4 Tagen Inkubation, Fig. 1A) is given as “Stimulierung der Ossifikation”; in [4] (11 Tagen Inkubation, Fig. 1B), “Stimulierung der Ossifikation”. Moreover, the “Farbstärke (Alizarinrot)” value in test [4] (relative to equally treated control sample without tetrapeptide) is on record as “wenigstens den dreifachen Wert”. Moreover, the “Expression von Zonula occludens-1 (ZO-1)” value in [5] is on record as “stimulierenden Wirkung”. In test [6], the “Fluoreszenzintensität (Claudin-5)” value was “wenigstens den dreifachen Wert”. In test [7] (6 Stunden Inkubation, versus reference sample, Fig. 3A), the “grüne Fluoreszenz (FAK)” value was “stärkere grüne Fluoreszenz”. For the same compound, the “Fluoreszenzintensität (FAK)” value in test [7] (relative to control sample without tetrapeptide) is given as “wenigstens den dreifachen Wert”. Besides, the “Expression der Alkalischen Phosphatase (grüne Fluoreszenz)” value (“Expression der Alkalischen Phosphatase” below) in test [8] is recorded as “Abnahme der grünen Fluoreszenz”. The “Häufigkeit (Frequenz) der Fluoreszenzintensität, Expression der ALP” value in test [8] (ab dem Wert 65, % of frequency in tetrapeptide-free control cells) is not above 50%.

With `CC(C)[C@H](NC(=O)CN)C(=O)N[C@@H](CO)C(=O)NCC(=O)O` [Peptid-2, GVSG] (H-GVSG-OH), the “Stimulierung der Ossifikation” value is “Stimulierung der Ossifikation” in test [4] (4 Tagen Inkubation, Fig. 1A) and “Stimulierung der Ossifikation” in test [4] (11 Tagen Inkubation, Fig. 1B). In addition, the “Expression von Zonula occludens-1 (ZO-1)” value in test [5] was “stimulierenden Wirkung”. In addition, in test [8], the “Expression der Alkalischen Phosphatase” value is “Abnahme der grünen Fluoreszenz”.

On to `C[C@]12CC[C@H]3[C@@H](CCC4=CC(=O)CC[C@@]43C)[C@@H]1CC[C@@H]2O` [Testosteron], for which, in test [9], the “grüne Fluoreszenz (FAK)” value is “stärkere grüne Fluoreszenz”. In addition, in [10], the “Bildung von Myotuben (Muskelfasern)” value was “Myotuben (= Muskelfasern) gebildet”. Also, the “Expression der Alkalischen Phosphatase” value in test [11] was “Abnahme der grünen Fluoreszenz”. The “Stimulierung der Ossifikation” value in [12] (4 Tagen Inkubation, Fig. 1A) is given as “Stimulierung der Ossifikation”; in test [12] (11 Tagen Inkubation, Fig. 1B), “Stimulierung der Ossifikation”.

With GWG [Peptid-3], the “Expression von Zonula occludens-1 (ZO-1)” value in test [5] was “stimulierenden Wirkung”.
